These results are taken from patent publication US9714247B2, “Multiple kinase pathway inhibitors” (Mannkind Corporation, priority 2012, dated 2017).

SMILES strings stand for the structures. Like-named read-outs stand apart in the source and are kept apart here.

One assay has as its system DoHH2 cells. The settings on record: treated 24 hours.
The next assay deals with Ramos. Briefly: CellTiter-Glo proliferation/viability assay. The format is cell-based, human. The settings on record: Homo sapiens, Ramos, read-out: Ramos EC50. In general terms: Cellular ATP, detected with luciferase, serves as a proxy for viable cell number.
The test system of assay [1] is DoHH2. Kind of assay: CellTiter-Glo proliferation/viability assay. The format is cell-based, human. Conditions: Homo sapiens, DOHH-2.
The subject of assay [2] is PLCγ2 phosphorylation in Ramos cells. Kind of assay: PLCγ2 phosphorylation by flow cytometry. The format is cell-based, human. Conditions: Homo sapiens, 0.3 uM, flow cytometry, anti-phospho PLCγ2 (Tyr759), read-out: pPLCγ % inhibition. The protocol: Ramos cells were cultured in RPMI 1640 media with 10% FBS and were starved overnight (18 h) in 1% FBS containing media and on the next day pretreated with inhibitor for 2 h before stimulation. Cells were stimulated to induce BTK network dependent signal transduction pathways using mouse anti-human IgM (final concentration 10 ug/ml; Invitrogen) antibodies and 3.3 mM H2O2 mixture for 2 minutes followed by F(Ab) fragment that cross-linked the anti-IgM antibody (final concentration 10 ug/ml), and 3.3 mM H2O2 for 8 minutes. Cell lysates were prepared in lysis buffer containing protease and phosphatase inhibitors, quantified using the BCA protein assay kit (Pierce) and used for Western blotting. Antibodies specifically targeted to the molecules of interest, PLCγ2 phosphorylated at Tyr1217 and total PLCγ2, (Cell Signaling Technology) were used in a standard Western blotting procedure.
PLCγ2 phosphorylation was also assessed by flow cytometry. Cells were similarly stimulated and following stimulation, Cytofix buffer (Becton Dickinson) was added, cells were centrifuged and the cell pellets incubated on ice with Phosflow perm buffer III (Becton Dickinson). These cell pellets were washed with Perm/Wash buffer (Becton Dickinson); resuspended and labeled for flow cytometry analysis in a staining mixture containing Perm/Wash buffer and PE-labeled anti-phosphoPCLγa2 (Tyr1217) antibody (Becton Dickinson). The samples were washed with Perm/Wash buffer and analyzed on a FACS Calibur flow cytometer using CellQuest Pro software. As mentioned for the Western blot experiments, phosphorylation of PLCγ2 at Tyr1217 along with Tyr753, Tyr759 and Tyr1197 is correlated with increased PLCγ2 activity. The readout for BTK network signaling was inhibition of phosphorylation of PLCγ2. Cells were gated to exclude dead or dying cells. Fluorescence signals from the antibody staining were plotted in logarithmic units and data was analyzed using Cellquest Pro software. […] An ED50 was calculated based on the geometric mean of fluorescence intensity observed for treatment for four different concentrations of the inhibitors (see Table 7 and FIG. 6). […] Thus treatment with amino naphthyridinones inhibits PLCγ2 phosphorylation consistent with inhibition of BTK and/or LYN activity.
Following stimulation, cells were prepared for analysis by flow cytometry as described above. In short, cells were fixed and permeabilized using Cytofix buffer, Phosflow perm buffer and Perm/Wash buffer (Becton Dickinson). The cells were stained with PE-labeled anti-phosphoPCLγ2 (Tyr759) antibody (Becton Dickinson) and analyzed on a FACS Calibur flow cytometer using CellQuest Pro software. […] Thus aminonaphthyridinones are useful for the indirect inhibition of PLCγ2 phosphorylation.
In general terms: Flow cytometry measures light scatter and fluorescence of single cells or particles in a stream.

In assay [3] the test system is phosphorylation of SFKs in Ramos cells. Kind of assay: SFK phosphorylation (Tyr 416) by flow cytometry. The format is cell-based, human. The settings on record: Homo sapiens, 0.3 uM, flow cytometry, SFK phosphorylated at Tyr 416, read-out: pSRC % inhibition. The protocol: Ramos cell lysates from stimulated and unstimulated cells were analyzed for the levels of phosphorylated SRC family members. As described in Example 82 (above), cells were pretreated for 2 hours with an amino naphthyridinones and then stimulated with anti-IgM antibody and H2O2, protein lysates were prepared, quantified and used for Western blotting. A commercially available antibody that detects Src phosphorylated at Tyr 416 (Cell Signalling) and may cross-react with other Src family members such as Lyn, Fyn, Lck, Yes and Hck when phosphorylated at equivalent sites was used for Western blot analysis. The molecular weights of SFK family members are quite similar (in the 55-60 kDa range) and different family members cannot be resolved by the conditions used for the Western blot. […] The procedure can be similarly adapted for flow cytometric analysis as with the PLC-γ2 assay in Example 82. Ramos cells were incubated with Compound 1 for 2 hrs in RPMI media with 5% FBS prior to stimulation stimulated with H2O2/anti-IgM/F(Ab) for 10 minutes. Cells were evaluated by FACS analysis using anti-pSRC antibody and FITC-conjugated goat anti-rabbit secondary antibody following overnight storage at 4° C. in BD perm/wash buffer.
Ramos cells were prepared for flow cytometry analysis as described in example 82, and stained with a commercially available antibody that detects SFK phosphorylated at Tyr 416, followed by Alexa Fluor 488 conjugated secondary antibody. […] Thus amino naphthyridinones are useful in the inhibition of the phosphorylation of SFKs.

The target in assay [4] is T1, Lyn (Homo sapiens (Human), UniProt P07948). Briefly: biochemical.
T1 sequence (P07948 whole entry): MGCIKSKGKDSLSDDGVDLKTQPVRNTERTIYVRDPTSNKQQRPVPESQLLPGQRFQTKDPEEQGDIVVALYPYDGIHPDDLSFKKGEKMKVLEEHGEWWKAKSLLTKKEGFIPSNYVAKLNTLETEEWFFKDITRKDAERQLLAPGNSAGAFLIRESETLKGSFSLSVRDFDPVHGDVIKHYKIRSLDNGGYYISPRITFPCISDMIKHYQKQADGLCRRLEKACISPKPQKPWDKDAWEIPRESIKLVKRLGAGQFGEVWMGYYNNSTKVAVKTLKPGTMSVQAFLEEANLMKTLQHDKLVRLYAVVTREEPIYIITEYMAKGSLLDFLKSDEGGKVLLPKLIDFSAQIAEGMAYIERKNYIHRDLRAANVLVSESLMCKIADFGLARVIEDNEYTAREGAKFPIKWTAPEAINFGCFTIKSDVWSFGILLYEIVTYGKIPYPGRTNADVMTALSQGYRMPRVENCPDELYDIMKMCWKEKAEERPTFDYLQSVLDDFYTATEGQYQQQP
In assay [5] the target is T2, Src (Homo sapiens (Human), UniProt P12931). Briefly: biochemical.
T2 sequence (P12931 whole entry, looked up): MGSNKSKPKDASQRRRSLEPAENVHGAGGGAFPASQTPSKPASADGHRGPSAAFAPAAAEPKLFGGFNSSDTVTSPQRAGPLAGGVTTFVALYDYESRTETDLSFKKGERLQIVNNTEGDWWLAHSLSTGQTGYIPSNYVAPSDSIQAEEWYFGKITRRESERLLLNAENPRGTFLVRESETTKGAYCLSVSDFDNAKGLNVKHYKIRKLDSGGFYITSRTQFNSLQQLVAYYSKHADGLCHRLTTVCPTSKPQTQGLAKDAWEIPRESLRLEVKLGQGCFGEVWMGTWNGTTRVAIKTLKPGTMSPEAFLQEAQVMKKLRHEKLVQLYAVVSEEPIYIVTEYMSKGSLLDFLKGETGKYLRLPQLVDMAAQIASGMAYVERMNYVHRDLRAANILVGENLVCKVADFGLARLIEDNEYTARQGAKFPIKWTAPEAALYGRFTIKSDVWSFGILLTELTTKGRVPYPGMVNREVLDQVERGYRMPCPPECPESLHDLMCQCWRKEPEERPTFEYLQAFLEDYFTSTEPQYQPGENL
Assay [6] deals with T1, Lyn. Conditions: read-out: Lyn IC50.
For assay [7], the system named is DoHH2. Kind of assay: Apoptosis by flow cytometry (Annexin V / 7AAD). The class given is cell-based, human. Conditions: Table 6. An excerpt:
Activation of Tec family kinases including BTK, and/or Src kinase family members, regulates cell survival and cell death in normal B cells, lymphomas, and solid tumors. Apoptosis is a programmed cell death characterized by specific changes in cell morphology. […] Staurosporine was used as a positive control for apoptosis. […] Table 6 illustrates that several amino naphthyridinones induce significant apoptosis in DoHH2 cells.

The target of assay [8] is T2, Src. The settings on record: read-out: Src IC50.
For another assay, the target named is BTK (Homo sapiens (Human), UniProt Q06187).
Chain of BTK (Q06187 whole entry): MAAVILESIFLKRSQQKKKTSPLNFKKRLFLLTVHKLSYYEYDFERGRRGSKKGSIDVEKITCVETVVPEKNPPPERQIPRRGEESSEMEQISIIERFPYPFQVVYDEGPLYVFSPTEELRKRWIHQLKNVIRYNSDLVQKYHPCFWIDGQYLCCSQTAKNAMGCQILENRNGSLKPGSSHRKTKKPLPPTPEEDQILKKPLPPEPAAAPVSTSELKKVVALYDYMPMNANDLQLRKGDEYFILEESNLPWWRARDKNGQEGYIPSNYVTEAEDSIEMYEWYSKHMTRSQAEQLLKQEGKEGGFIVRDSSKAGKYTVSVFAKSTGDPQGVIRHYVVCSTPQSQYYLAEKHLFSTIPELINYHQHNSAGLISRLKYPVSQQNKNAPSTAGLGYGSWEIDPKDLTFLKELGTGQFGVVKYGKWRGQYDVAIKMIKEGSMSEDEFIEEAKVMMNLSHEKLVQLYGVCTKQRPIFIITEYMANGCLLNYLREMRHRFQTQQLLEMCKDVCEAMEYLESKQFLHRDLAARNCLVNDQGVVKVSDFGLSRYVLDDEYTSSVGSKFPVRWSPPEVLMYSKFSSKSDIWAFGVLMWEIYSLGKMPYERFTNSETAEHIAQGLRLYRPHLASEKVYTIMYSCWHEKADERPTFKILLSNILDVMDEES

Regarding `CCN(CC)CCOc1ccc(Nc2cc3c(cn2)cc(-c2ccccc2)c(=O)n3C2CCCC2)nc1` [Compound 23, 1-cyclopentyl-7-(5-(2-(diethylamino)ethoxy)pyridin-2-ylamino)-3-phenyl-1,6-naphthyridin-2(1H)-one], the “Effect on Cell Cycle” value in the assay with DoHH2 cells was “G1 Arrest”. In addition, the EC50 in the assay on Ramos (48 h) is 1000 to 10000 nM; with DoHH2 [1] (48 hrs, read-out: DoHH2 EC50), less than 1000 nM; in the assay on DoHH2 [1] (Table 4, DoHH2 cells, read-out: EC50 (Proliferation)) it was less than 1000 nM. Moreover, the inhibition (in general, the change of the read-out against control, counted positive when it falls) at 0.3 µM worked out at 32% in assay [2] and 5% in [3]. Further, the IC50 at Lyn [4] and on Src [5] was 100 to 1000 nM throughout.

Turning to `CCN(CC)CCOc1ccc(Nc2cc3c(cn2)cc(-c2ccccc2)c(=O)n3CCOC)nc1` [Compound 24, 7-(5-(2-(diethylamino)ethoxy)pyridin-2-ylamino)-1-(2-methoxyethyl)-3-phenyl-1,6-naphthyridin-2(1H)-one], the EC50 in the assay with Ramos (48 hrs) is 1000 to 10000 nM; in the assay on DoHH2 [1] (48 hrs, read-out: DoHH2 EC50), less than 1000 nM. For the same compound, the IC50 on Lyn [6], at Src [8] and at BTK (read-out: BTK IC50) was less than 100 nM in each case. The “Percent Apoptosis at 2 uM” value in the assay on DoHH2 [7] (DOHH2, 2 uM) stood at 34.76%. For the same compound, in the assay on DoHH2 [7] (DOHH2, 5 uM), the “Percent Apoptosis at 5 uM” value was found to be 46.4%.

For the compound `CCn1c(=O)c(-c2c(F)cccc2F)cc2cnc(Nc3ccc(CN4CCN(C)CC4)cn3)cc21` [Compound 96, 3-(2,6-difluorophenyl)-1-ethyl-7-((5-((4-methylpiperazin-1-yl)methyl)pyridin-2-yl)amino)-1,6-naphthyridin-2(1H)-one], the EC50 is 1000 to 10000 nM in the assay with Ramos (48 h) and less than 1000 nM in the assay on DoHH2 [1] (48 hrs, read-out: DoHH2 EC50). Besides, the IC50 (usually the concentration that inhibits the measured activity by half) on Lyn [6] was less than 100 nM; on Src [8], less than 100 nM; at BTK, 100 to 1000 nM. Further, the inhibition at 0.3 µM was found to be 86% in [2] and 51% in assay [3].

For the compound `CCN(CC)CCOc1ccc(Nc2cc3c(cn2)cc(-c2ccc(F)cc2F)c(=O)n3CC)nc1` [Compound 100, 7-((5-(2-(diethylamino)ethoxy)pyridin-2-yl)amino)-3-(2,4-difluorophenyl)-1-ethyl-1,6-naphthyridin-2(1H)-one], the EC50 with Ramos (48 hrs) is 1000 to 10000 nM; in the assay on DoHH2 [1] (48 hrs, read-out: DoHH2 EC50), less than 1000 nM. Also, the IC50 on Lyn [6], at Src [8] and at BTK (read-out: BTK IC50) was less than 100 nM in each case. For the same compound, the inhibition at 0.3 µM was found to be 70% in [2] and 30% in assay [3].

For `CCN(CC)CCOc1ccc(Nc2cc3c(cn2)cc(-c2ccccc2C(F)(F)F)c(=O)n3CC)nc1` [Compound 107, 7-((5-(2-(diethylamino)ethoxy)pyridin-2-yl)amino)-1-ethyl-3-(2-(trifluoromethyl)phenyl)-1,6-naphthyridin-2(1H)-one], the EC50 is more than 10000 nM in the assay on Ramos (48 h) and less than 1000 nM in the assay on DoHH2 [1] (48 hrs, read-out: DoHH2 EC50). Also, the inhibition at 0.3 µM in [2] came out at 48%; in assay [3], 28%. The IC50 on Lyn [4] (Lyn IC50) is 100 to 1000 nM; on Src [8] it was less than 100 nM; at BTK (read-out: BTK IC50), less than 100 nM.

`CCN(CC)CCOc1ccc(Nc2cc3c(cn2)cc(-c2c(O)cccc2Cl)c(=O)n3CC)nc1` [Compound 109, 3-(2-chloro-6-hydroxyphenyl)-7-((5-(2-(diethylamino)ethoxy)pyridin-2-yl)amino)-1-ethyl-1,6-naphthyridin-2(1H)-one]: the EC50 with Ramos (48 hrs) was 1000 to 10000 nM; in the assay with DoHH2 [1] (48 hrs, read-out: DoHH2 EC50), less than 1000 nM. The IC50 at Lyn [6], on Src [8] and at BTK (read-out: BTK IC50) was less than 100 nM throughout. The inhibition at 0.3 µM in [2] came out at 91%; in assay [3] it was 65%.

For `CCn1c(=O)c(-c2c(F)cccc2Cl)cc2cnc(Nc3ccc(N(C)C4CCN(C)CC4)cn3)cc21` [Compound 115, 3-(2-chloro-6-fluorophenyl)-1-ethyl-7-((5-(methyl(1-methylpiperidin-4-yl)amino)pyridin-2-yl)amino)-1,6-naphthyridin-2(1H)-one], the EC50 is 1000 to 10000 nM with Ramos (48 h) and less than 1000 nM in the assay with DoHH2 [1] (48 hrs, read-out: DoHH2 EC50). Further, the half-maximal inhibitory concentration (IC50) at Lyn [6], at Src [8] and at BTK (read-out: BTK IC50) was less than 100 nM throughout. In addition, the inhibition at 0.3 µM stood at 97% in assay [2] and 80% in assay [3].

In the case of `CN1CCC(N(C)c2ccc(Nc3cc4c(cn3)cc(-c3c(F)cccc3F)c(=O)n4C)nc2)CC1` [Compound 135, 3-(2,6-difluorophenyl)-1-methyl-7-((5-(methyl(1-methylpiperidin-4-yl)amino)pyridin-2-yl)amino)-1,6-naphthyridin-2(1H)-one], the EC50 is 1000 to 10000 nM in the assay with Ramos (48 h) and less than 1000 nM in the assay on DoHH2 [1] (48 hrs, read-out: DoHH2 EC50). Also, the IC50 at Lyn [6], on Src [8] and at BTK (read-out: BTK IC50) was less than 100 nM in each case. Moreover, the values for the inhibition at 0.3 µM in assay [2] and in assay [3] were 82% and 49%, respectively.

On to `CN1CCC(N(C)c2ccc(Nc3cc4c(cn3)cc(-c3c(F)cccc3F)c(=O)n4C3CC3)nc2)CC1` [Compound 136, 1-cyclopropyl-3-(2,6-difluorophenyl)-7-((5-(methyl(1-methylpiperidin-4-yl)amino)pyridin-2-yl)amino)-1,6-naphthyridin-2(1H)-one], for which the EC50 is 1000 to 10000 nM in the assay on Ramos (48 h) and less than 1000 nM in the assay on DoHH2 [1] (48 hrs, read-out: DoHH2 EC50). In addition, the IC50 on Lyn [6], on Src [8] and at BTK (read-out: BTK IC50) was less than 100 nM throughout. Moreover, the inhibition at 0.3 µM amounted to 85% in assay [2] and 55% in assay [3].

For `CN1CCC(N(C)c2ccc(Nc3cc4c(cn3)cc(-c3c(F)cccc3F)c(=O)n4C3CCC3)nc2)CC1` [Compound 138, 1-cyclobutyl-3-(2,6-difluorophenyl)-7-((5-(methyl(1-methylpiperidin-4-yl)amino)pyridin-2-yl)amino)-1,6-naphthyridin-2(1H)-one], the EC50 with Ramos (48 h) was 1000 to 10000 nM; in the assay on DoHH2 [1] (48 hrs, read-out: DoHH2 EC50), less than 1000 nM. The IC50 at Lyn [6], on Src [8] and on BTK (read-out: BTK IC50) was less than 100 nM throughout. Also, the inhibition at 0.3 µM in assay [2] was 99%; in [3], 86%.
